Where a name gives a salt, the structure may show the parent alone.
Key:
[1] = stability of the salt; format: physicochemical
[2] = aqueous solubility; format: physicochemical; settings: salt compared with the free acid
[3] = hygroscopicity at high relative humidity; format: physicochemical; settings: even at relative humidities as high as 90 RH
[4] = bioavailability; settings: attributed to the higher aqueous solubility

Structure (SMILES)	stability [1]	solubility in aqueous media [2]	hygroscopicity [3]	bioavailability [4]
CCO[C@@H](Cc1ccc(OCCN2c3ccccc3Oc3ccccc32)cc1)C(=O)O [(L)-Arginine salt, (L)-Arginine (2S)-2-Ethoxy-3-{4-[2-(10H-phenoxazin-10-yl)ethoxy]phenyl}propanoate]	highly stable	significantly higher aqueous solubility	not hygroscopic	good bioavailability
CCO[C@@H](Cc1ccc(OCCN2c3ccccc3Oc3ccccc32)cc1)C(=O)O [(2S)-2-Ethoxy-3-{4-[2-(10H-phenoxazin-10-yl)ethoxy]phenyl}pr] [(2S)-2-Ethoxy-3-{4-[2-(10H-phenoxazin-10-yl)ethoxy]phenyl}propanoic acid]		sparingly soluble		

Reference: patent publication US7414128B2, “Crystalline R-guanidines, Arginine or (L)-Arginine (2S)-2-Ethoxy-3-{4-[2-(10H -phenoxazin-10-yl)ethoxy]phenyl}propanoate” (Dr. Reddy's Laboratories, Limited, priority 2002, dated 2008)
